The values that follow come from ChEMBL document CHEMBL3271954, “Antitumor agents. 25. Synthesis and antitumor activity of uracil and thymine alpha-methylene-gamma-lactones and related derivatives” (1977).

What all share (type): functional
Common to all, as to conditions: for T/C: route intraperitoneal

The test system of one experiment is W256. In words: Antitumor activity against rat Walker 256 cells allografted in Sprague-Dawley rat at 2.5 mg/kg/day, ip relative to control.
A further experiment has as its system P388. In words: Antitumor activity against mouse P388 cells allografted in DBA/2 mouse at 25 mg/kg/day, ip administered for 2 weeks relative to control.
The subject of another experiment is B16. In words: Antitumor activity against mouse B16 cells allografted in C57Bl/6 mouse at 25 mg/kg/day, ip administered for 2 weeks relative to control.

Activity calls are given as the source filed them. The calls are words filed in the database; no cut-off is given here.

The T/C is the ratio of treated to control. With `C=C1CC(C)(Cn2cc(COC(=O)/C=C/c3ccccc3)c(=O)[nH]c2=O)OC1=O` (configuration not stated), the T/C with W256 was determined as 211%; in the experiment with P388, 130%; in the experiment on B16, 141%.
Turning to `O=c1[nH]cc(F)c(=O)[nH]1` [FLUOROURACIL], the T/C is 186% with P388 and 164% with B16.
For `C=C1CC(C)(Cn2cc(C)c(=O)[nH]c2=O)OC1=O` (configuration not stated), the results for the T/C with W256, in the experiment on P388 and in the experiment on B16 were 127%, 127% and 123%, respectively.
With `C=C1C(=O)O[C@H]2[C@H]1[C@H](OC(=O)/C(C)=C/CO)C/C(C)=C/CC[C@@]1(CO)O[C@H]21`, the T/C is reported as 330% in the experiment on W256, 147% in the experiment on P388 and 111% in the experiment on B16.
For `C=C1CC(C)(Cn2ccc(=O)[nH]c2=O)OC1=O` (configuration not stated), the T/C in the experiment with W256 was 131%; with P388, 115%; in the experiment with B16, 111%.
In the same order, the values of `C=C1C(=O)O[C@H]2/C=C(/C)[C@H](CO)C/C=C(\C)C[C@@H](OC(=O)/C(=C/CO)CO)[C@@H]12` [EUPAFORMOSANIN] are 471%, 147% and 113%.
Regarding `O=c1cc[nH]c(=O)[nH]1`, the outcome with W256, in the experiment with P388 and with B16 was inactive.
As for `Cc1c[nH]c(=O)[nH]c1=O`, the result in the experiment on W256, in the experiment on P388 and in the experiment with B16 was inactive.
`N[C@@H](Cc1ccc(N(CCCl)CCCl)cc1)C(=O)O` [MELPHALAN]: the T/C in the experiment on W256 is given as 317%.
As to `C=C1CC(C)(Cn2cc(COC(=O)c3cc(OC)c(OC)c(OC)c3)c(=O)[nH]c2=O)OC1=O` (configuration not stated), the T/C in the experiment with W256 stood at 209%; in the experiment with P388, 142%; in the experiment with B16, 129%.
